One block for each compound: values may come before it.
How the values were obtained:
[1] = Plasma concentrations of BVDU, BVU and GEM in patients of the dose finding study (HPLC); type: in vivo, human
Method: Dose finding study: 22 Patients with advanced pancreatic adenocarcinoma were eligible for treatment in this single arm study. The mean age was 60 years and 73% of patients were males. One patient without progressive disease was excluded from the study for withdrawal of consent after the first cycle. Of the 21 patients left, 15 were in stage IV and 6 in stage III. BVDU was administered in a combination with GEM. On day 1, on day 8 and on day 15 of each 28-day cycle, BVDU was given together with GEM. On days 2-4, on days 8-11, and on days 15-18 of a 28-day cycle, BVDU was given alone in the recovery phase.
The starting dose of BVDU was 4×125 mg/day (total dose of 6,000 mg per treatment cycle) together with a fixed dose of GEM (1,000 mg/M^2). Subsequent total doses of BVDU per cycle were 7,500 mg, 9,000 mg, 10,500 mg, and 12,000 mg again in four patients per cohort. Dosage levels were administered as follows: First dose level: The starting dose of BVDU was 4×125 mg daily given at approximately 08:00 a.m. (1×125 mg BVDU), 12:00 a.m. (1×125 mg BVDU), 04:00 p.m. (1×125 mg BVDU), and 08:00 p.m. (1×125 mg BVDU). These doses were administered on days 1 to 4, days 8 to 11 and days 15 to 18; Second dose level: 1×250 mg+3×125 mg daily; Third dose level. 2×250 mg+2×125 mg daily; Forth dose level: 3×250 mg+1×125 mg daily; and, Fifth dose level: 4×250 mg daily.
Approximately 1 hour after the 08:00 a.m. BVDU-administration on day 1, day 8 and day 15 of a cycle, the GEM infusion started and GEM was infused for 30 minutes.
Analysis of the concentrations of GEM and BVDU (BVDU) as well as analysis of the concentrations of BVU ((E)-5-(2-bromovinyl)uracil, degradation product of BVDU) in plasma samples: 0.5 ml of plasma spiked with about 0.5 μg of 4-Propyl-2-thiouracil (PTU) as internal standard was extracted with 2.5 ml of methanol-acetonitrile (v/v, 1:9) by vigorous mixing for about 1 min. After centrifugation the supernatant was transferred to a beaker and evaporated to dryness at 50° C. under a gentle stream of nitrogen. The residue was dissolved in 1 ml of the solution used as mobile phase by 10 min treatment in an ultrasonic bath. After centrifugation the clear supernatant was used for HPLC-analysis. The concentrations of GEM and BVDU were calculated using a calibration curve with the respective standard substances. The concentrations of BVU were calculated using the calibration curve of BVDU and the determined response factor. Limits of detection: BVDU 20 ng/ml plasma; GEM 30 ng/ml plasma. Limits of quantification: BVDU 60 ng/ml plasma; GEM 100 ng/ml plasma.
Pharmacokinetic Results BVDU: All measurements were performed within 9 hours. Therefore, only the first three intakes of BVDU-tablets were relevant in this context, and as consequence, in dose groups four and five the intake of tablets was identical. When the dose was doubled from 125 mg to 250 mg, the mean maximum BVDU concentration in plasma increased fivefold from 290 (±152) ng/ml to 1549 (±1058) ng/ml (FIG. 10).

[2] = tested on: AH13r tumor cells; test: Hoechst 33258/propidium iodide (Hopi) double coloration for apoptosis; type: cell-based, rat; settings: cytostatic
Source text: The indication that the reduction in cell number is based on apoptosis, was detected by means of Hoechst 33258/propidium iodide (Hopi) double coloration.

[3] = tested on: dimethybenzanthracene (DMBA) induced tumors; test: Growth of DMBA-induced tumors in SD rats under DOX ± BVDU; type: in vivo, rat; settings: DOX 1 mg/kg
Method: (§1) The reduction in toxic side effects of doxorubicin (DOX) was able to be shown in the test with rats (see Table 3). SD rats were treated with dimethybenzanthracene (DMBA). […] During the treatment and one day after each treatment, i.e. in the recovery phase, the animals obtained respectively 15 mg/kg BVDU. The recovery phase in vivo was 6× one day.

[4] = Animal weight of DOX ± BVDU treated rats (toxic side effects); type: in vivo, rat
Method: DT-D inactivates ROS and thus protects cells from non-specific ROS and electrophilic attacks. […] DOX treatment alone leads to weight losses because of the toxic side effects. It is certain that only the side effects (possibly the cardiotoxicity characteristic of DOX) are reduced by BVDU but not the toxic effects on the tumor.
as §1

[5] = tested on: advanced pancreatic cancer; settings: pivotal study, Glimelius et al. 1996; cited from earlier work
[6] = tested on: pancreatic cancer; settings: pancreatic cancer patients; cited from earlier work
[7] = DMBA-induced tumors, BVDU 15 mg/kg, average of 5-8 rats
[8] = SD rats, DOX 1 mg/kg, BVDU 15 mg/kg, average of 5-8 rats

- Mean maximum BVU concentration ([1]; lower end of the BVDU dose range ("from")): 1525 (±1012) ng/ml
- Mean maximum BVU concentration ([1]; upper end of the BVDU dose range ("to")): 4637 (±1353) ng/ml
Structure (SMILES): O=c1[nH]cc(/C=C/Br)c(=O)[nH]1 [BVU, (E)-5-(2-bromovinyl)uracil]

Structure (SMILES): CO[C@@]12[C@H](COC(N)=O)C3=C(C(=O)C(C)=C(N)C3=O)N1C[C@@H]1N[C@@H]12 [MMC, mitomycin C]
- Apoptosis (HOPI double coloration) [2]: initiate apoptosis

Structure (SMILES): COc1cccc2c1C(=O)c1c(O)c3c(c(O)c1C2=O)C[C@@](O)(C(=O)CO)C[C@@H]3O[C@H]1C[C@H](N)[C@H](O)[C@H](C)O1 [DOX, doxorubicin]
- Relative tumor size Day 1 [3, 7]: 1
- Relative tumor size Day 16 [3, 7]: 1.5
- Growth of DMBA-induced tumors [3]: inhibited in their growth
- Relative animal weight Day 1 [4, 8]: 0
- Relative animal weight Day 16 [4, 8]: −7%
- Animal weight change as index of toxic side effects ([4]; rat, in vivo): weight losses
- Apoptosis (HOPI double coloration) [2]: initiate apoptosis

Structure (SMILES): O=C1c2c(O)ccc(O)c2C(=O)c2c(NCCNCCO)ccc(NCCNCCO)c21 [MXA, mitoxantrone]
- Apoptosis (HOPI double coloration) [2]: initiate apoptosis

Structure (SMILES): Nc1ccn([C@@H]2O[C@H](CO)[C@@H](O)C2(F)F)c(=O)n1 [GEM, gemcitabine]
- GEM maximum values with increase of the BVDU dose ([1]; BVDU 125 vs 250 mg, large variability between individual patients): appear to rise
- GEM detectability in plasma ([1]; at the second BVDU intake, 4 hours later): not detectable any more
- Median survival [5]: less than 6 months
- Diarrhea [6]: 2%
- One-year survival [6]: 17%
- Overall survival [6]: 5.9 months
- Skin rash [6]: 1%
- Time to progression [6]: 3.55 months

From patent US20090068286A1, “METHOD OF TREATING CANCER BY ADMINISTRATION OF 5-SUBSTITUTED NUCLEOSIDES” (RESprotect, GmbH, priority 2007, published 2009)
